Data published in patent US20160193162A1 (TIANJIN TAIPU PHARMACEUTICAL SCIENCE & TECHNOLOGY …, priority 2013, published 2016).
Where two headings read alike, the source gives them in different places.

Assays:
[1] = test on influencing factors (high temperature, high humidity); assay type: physicochemical
Experimental: 2) Test on influencing factors: we investigated in combination with formulations of the present invention: the samples were allowed to stand in an open state for 30 days under the conditions of a high temperature of 60° C., a high humidity of RH 92%, and both high temperature and high humidity (40° C., RH75%), respectively.

[2] = stability in the process: crystal form purity (DSC) and relevant substances (HPLC); assay type: physicochemical; conditions: stage of the manufacturing process
Text: Referring to the aforementioned test 6, tablets were manufactured according to formulation and process with hydroxyproplyl methyl cellulose and polyvinylpyrrolindone k30 in a concentration of 15% as a protective agent.
1) Stability in the process: crystal form purity of the tablets was detected using DSC method with crystal forms and relevant substances as evaluation indexes. Regarding detection of relevant substances, HPLC method was adopted using imported drug as a standard.

[3] = I-form crystal purity by DSC of raw material after pulverization, grinding, tabletting; assay type: physicochemical
Text: Change of the crystalline I-form raw material in pulverization, grinding, and tabletting (at a pressure of 10 kg) was detected by DSC (see FIGS. 1-4).

[4] = solubility of crystalline I-form agomelatine in solvents; assay type: physicochemical
[5] = powder diffraction of sample tablets after acceleration; assay type: physicochemical; conditions: sample tablets accelerated for two months
Text: Chinese patent CN1101704763A recites a preparation method of the I-form crystals. […] Changes in crystal forms, on the one hand may result in infringement, and on the other hand may further lead to inconsistency in bioavailability of drugs. Therefore, it is very important to solve the problem of stability of crystal forms during the processes of the tablet manufacture and preservation.

[6] = system: brain nerve cells of an adult rat; conditions: cited from earlier work

SMILES: COc1ccc2cccc(CCNC(C)=O)c2c1 [agomelatine]
- Crystal form purity % ([1]; 0 day): 100%
- Crystal form purity % ([1]; 10 days at a high humidity (RH 92%), open state): 80%
- Crystal form purity % ([1]; 10 days at a high temperature (60° C.), open state): 65%
- Crystal form purity % ([1]; 10 days at both high temperature and high humidity (40° C., RH75%), open state): 35%
- Crystal form purity ([2]; DSC): 100
- Relevant substances ([2]; HPLC): 0.32%
- I-form crystal purity (%) detected by DSC ([3]; after grinding): 97.5%
- I-form crystal purity (%) detected by DSC ([3]; after pulverization): 90.0%
- I-form crystal purity (%) detected by DSC ([3]; after tabletting at a pressure of 10 kg): 74.3%
- I-form crystal purity (%) detected by DSC ([3]; raw material, untreated): 100%
- solubility ([4]; in DMSO): very soluble
- solubility ([4]; in acetonitrile): very soluble
- solubility ([4]; in ethanol): very soluble
- solubility ([4]; in methanol): very soluble
- solubility ([4]; in water): almost insoluble
- crystal form by powder diffraction [5]: almost completely converted to the II form

SMILES: COc1ccc2cccc(CCNC(C)=O)c2c1 [Agomelatine, agomelatine]
- cell proliferation and neuronal regeneration in hippocampal ventral dentate gyrus ([6]; acute or subacute administration (4 hours or nine weeks)): no similar situation occurred
- cell proliferation and neuronal regeneration in hippocampal ventral dentate gyrus ([6]; long-term (three weeks) administration): increase cell proliferation and neuronal regeneration
